pIC50: −log10 of the molar value. Calls of active or inactive are those of the source. The rule behind the calls is not given here.
How the values were obtained:
[1] = target: Inhibitor of nuclear factor kappa-B kinase subunit epsilon (Homo sapiens) (UniProt Q14164); test: Inhibition of human IKKepsilon at 1 uM using RBER-GSK3 as substrate in presence of 33P-ATP by ProQinase assay
[2] = target: Dual specificity mitogen-activated protein kinase kinase 2 (Homo sapiens) (UniProt P36507); test: Inhibition of recombinant human N-terminal GST/C-terminal His6-tagged MKK2 (2 to 400 residues) expressed in Escherichia coli assessed as remaining activity at 1 uM using MBP as substrate incubated for 30 mins in presence of [gamma-33P]ATP by filter binding method relative to control
[3] = target: Dual specificity tyrosine-phosphorylation-regulated kinase 1A (Homo sapiens) (UniProt Q13627); test: Inhibition of human DYRK1A at 1 uM using RBER-CHKtide as substrate in presence of 33P-ATP by ProQinase assay
[4] = target: Leukocyte tyrosine kinase receptor (Homo sapiens) (UniProt P29376); test: Inhibition of human LTK at 1 uM using polyEY as substrate in presence of 33P-ATP by ProQinase assay
[5] = target: Homeodomain-interacting protein kinase 3 (Homo sapiens) (UniProt Q9H422); test: Inhibition of recombinant human N-terminal GST-tagged HIPK3 (161 to 562 residues) expressed in Escherichia coli assessed as remaining activity at 1 uM using MBP as substrate incubated for 30 mins in presence of [gamma-33P]ATP by filter binding method relative to control
[6] = target: Receptor tyrosine-protein kinase erbB-2 (Homo sapiens) (UniProt P04626); test: Inhibition of human ERBB2 at 1 uM using polyEY as substrate in presence of 33P-ATP by ProQinase assay
[7] = target: Serine/threonine-protein kinase PAK 2 (Homo sapiens) (UniProt Q13177); test: Inhibition of human PAK2 at 1 uM using bio-4xCHKT as substrate in presence of 33P-ATP by ProQinase assay
[8] = target: Serine/threonine-protein kinase 33 (Homo sapiens) (UniProt Q9BYT3); test: Inhibition of recombinant human N-terminal GST-tagged STK33 (1 to 514 residues) expressed in baculovirus infected Sf21 cells assessed as remaining activity at 1 uM using AALVRQMSVAFFFKKKKK as substrate incubated for 30 mins in presence of [gamma-33P]ATP by filter binding method relative to control
[9] = target: PI3-kinase p110-alpha/p85-alpha (Homo sapiens, UniProt P42336); test: Inhibition of human PIK3CA/PIK3R1 using PIP2/PS as substrate by ADP-Glo assay; type: protein-complex assay
[10] = target: ALK tyrosine kinase receptor (Homo sapiens) (UniProt Q9UM73); test: Inhibition of human GST/His-tagged ALK at 1 uM using polyEY as substrate in presence of 33P-ATP by ProQinase assay
[11] = target: Serine/threonine-protein kinase TBK1 (Homo sapiens) (UniProt Q9UHD2); test: Inhibition of human TBK1 at 1 uM using casein as substrate in presence of 33P-ATP by ProQinase assay
[12] = target: Homeodomain-interacting protein kinase 1 (Homo sapiens) (UniProt Q86Z02); test: Inhibition of recombinant human N-terminal GST-tagged HIPK1 (158 to 555 residues) expressed in Escherichia coli assessed as remaining activity at 1 uM using MBP as substrate incubated for 30 mins in presence of [gamma-33P]ATP by filter binding method relative to control
[13] = target: Serine/threonine-protein kinase Nek4 (Homo sapiens) (UniProt P51957); test: Inhibition of human NEK4 at 1 uM using MBP as substrate in presence of 33P-ATP by ProQinase assay
[14] = target: Casein kinase I isoform alpha (Homo sapiens) (UniProt P48729); test: Inhibition of human CK1alpha1 at 1 uM using casein as substrate in presence of 33P-ATP by ProQinase assay
[15] = target: NUAK family SNF1-like kinase 1 (Homo sapiens) (UniProt O60285); test: Inhibition of recombinant human N-terminal His6-tagged NUAK1 (2 to 660 residues) expressed in baculovirus infected Sf21 cells assessed as remaining activity at 1 uM using ALNRTSSDSALHRRR as substrate incubated for 30 mins in presence of [gamma-33P]ATP by filter binding method relative to control
[16] = target: 5'-AMP-activated protein kinase catalytic subunit alpha-1 (Homo sapiens) (UniProt Q13131); test: Inhibition of human AMPKalpha1 (1 to 550 residues) at 1 uM using RBER-CHKtide as substrate in presence of 33P-ATP by ProQinase assay
[17] = target: PI3K p110 beta/p85 alpha (Homo sapiens) (UniProt P27986+P42338); test: Inhibition of recombinant human N-terminal His6-tagged PI3Kbeta (1 to 1070 residues)/p85A (1 to 724 residues) expressed in baculovirus expression system at 1 uM using diC8 PIP2 as substrate incubated for 60 mins by ADP-Glo assay
[18] = target: Sphingosine kinase 2 (Homo sapiens) (UniProt Q9NRA0); test: Inhibition of recombinant human N-terminal His6-tagged SPHK2 (1 to 654 residues) expressed in baculovirus expression system at 1 uM using sphingosine as substrate incubated for 40 mins by ADP-Glo assay
[19] = target: Mitogen-activated protein kinase 11 (Homo sapiens) (UniProt Q15759); test: Inhibition of recombinant human N-terminal GST-tagged P38beta (1 to 364 residues) expressed in Escherichia coli assessed as remaining activity at 1 uM using MBP as substrate incubated for 30 mins in presence of [gamma-33P]ATP by filter binding method relative to control
[20] = target: Dual specificity protein kinase CLK2 (Homo sapiens) (UniProt P49760); test: Inhibition of recombinant human N-terminal GST-tagged CLK2 (138 to 499 residues) expressed in baculovirus infected Sf21 cells assessed as remaining activity at 1 uM using RNRYRDVSPFDHSR as substrate incubated for 30 mins in presence of [gamma-33P]ATP by filter binding method relative to control
[21] = target: Vascular endothelial growth factor receptor 2 (Homo sapiens) (UniProt P35968); test: Inhibition of human VEGFR2 at 1 uM using polyEY as substrate in presence of 33P-ATP by ProQinase assay
[22] = target: Serine/threonine-protein kinase 16 (Homo sapiens) (UniProt O75716); test: Inhibition of human TSF1 at 1 uM using casein as substrate in presence of 33P-ATP by ProQinase assay
[23] = target: Dual specificity tyrosine-phosphorylation-regulated kinase 2 (Homo sapiens) (UniProt Q92630); test: Inhibition of human DYRK2 at 1 uM using RBER-IRStide as substrate in presence of 33P-ATP by ProQinase assay
[24] = target: High affinity nerve growth factor receptor (Homo sapiens) (UniProt P04629); test: Inhibition of human TRKA at 1 uM using PolyEY as substrate in presence of 33P-ATP by ProQinase assay
[25] = target: Tyrosine-protein kinase Lyn (Homo sapiens) (UniProt P07948); test: Inhibition of human LYN at 1 uM using polyEY as substrate in presence of 33P-ATP by ProQinase assay
Sequence of Tyrosine-protein kinase Lyn (Homo sapiens) (P07948 2-512 limits assumed): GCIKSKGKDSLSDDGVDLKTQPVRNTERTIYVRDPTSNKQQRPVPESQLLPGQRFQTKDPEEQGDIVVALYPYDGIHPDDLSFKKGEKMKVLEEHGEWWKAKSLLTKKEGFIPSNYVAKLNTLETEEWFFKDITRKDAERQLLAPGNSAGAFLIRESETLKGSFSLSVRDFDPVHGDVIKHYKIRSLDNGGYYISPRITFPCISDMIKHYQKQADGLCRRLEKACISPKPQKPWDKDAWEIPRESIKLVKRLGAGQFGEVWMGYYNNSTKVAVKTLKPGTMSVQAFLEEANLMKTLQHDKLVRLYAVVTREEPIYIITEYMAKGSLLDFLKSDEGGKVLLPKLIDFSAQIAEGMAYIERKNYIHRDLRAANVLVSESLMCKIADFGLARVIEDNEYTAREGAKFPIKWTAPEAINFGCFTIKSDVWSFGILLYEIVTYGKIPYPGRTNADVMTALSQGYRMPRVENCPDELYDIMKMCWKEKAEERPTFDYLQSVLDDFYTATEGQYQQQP

Sequence of Serine/threonine-protein kinase Nek4 (Homo sapiens) (P51957 whole entry, looked up, canonical isoform): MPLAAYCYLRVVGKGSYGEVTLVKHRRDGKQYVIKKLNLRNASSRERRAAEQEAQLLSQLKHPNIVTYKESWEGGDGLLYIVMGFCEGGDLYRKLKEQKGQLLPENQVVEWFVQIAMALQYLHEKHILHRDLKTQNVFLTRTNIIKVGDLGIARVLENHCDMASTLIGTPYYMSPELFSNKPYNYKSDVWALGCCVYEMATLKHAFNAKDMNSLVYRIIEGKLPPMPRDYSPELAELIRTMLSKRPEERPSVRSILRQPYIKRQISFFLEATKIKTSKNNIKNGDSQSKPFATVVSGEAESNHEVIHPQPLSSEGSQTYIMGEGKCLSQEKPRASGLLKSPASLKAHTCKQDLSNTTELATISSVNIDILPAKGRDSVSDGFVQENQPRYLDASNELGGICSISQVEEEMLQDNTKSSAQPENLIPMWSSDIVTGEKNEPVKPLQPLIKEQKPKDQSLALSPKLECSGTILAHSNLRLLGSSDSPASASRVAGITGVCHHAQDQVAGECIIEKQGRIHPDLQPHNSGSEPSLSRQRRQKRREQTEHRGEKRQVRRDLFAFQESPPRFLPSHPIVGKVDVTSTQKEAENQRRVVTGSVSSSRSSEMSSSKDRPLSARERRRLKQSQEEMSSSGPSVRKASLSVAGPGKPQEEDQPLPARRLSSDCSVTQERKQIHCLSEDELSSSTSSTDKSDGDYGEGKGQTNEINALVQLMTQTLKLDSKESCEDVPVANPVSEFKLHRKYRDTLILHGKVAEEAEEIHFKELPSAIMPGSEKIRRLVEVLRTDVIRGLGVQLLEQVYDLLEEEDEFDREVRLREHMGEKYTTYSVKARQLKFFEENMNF
Sequence of Mitogen-activated protein kinase 11 (Homo sapiens) (Q15759 whole entry, the tested form may be a part): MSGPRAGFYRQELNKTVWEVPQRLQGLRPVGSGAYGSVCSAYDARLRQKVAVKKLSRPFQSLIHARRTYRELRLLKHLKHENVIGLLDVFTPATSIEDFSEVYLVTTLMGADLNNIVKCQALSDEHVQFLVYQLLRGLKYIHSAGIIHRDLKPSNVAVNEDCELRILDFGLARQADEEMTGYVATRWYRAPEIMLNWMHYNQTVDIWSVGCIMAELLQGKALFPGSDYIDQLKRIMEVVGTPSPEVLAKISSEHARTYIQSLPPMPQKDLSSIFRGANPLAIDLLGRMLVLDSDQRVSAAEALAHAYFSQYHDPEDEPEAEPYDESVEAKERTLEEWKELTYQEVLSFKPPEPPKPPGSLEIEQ
Sequence of Sphingosine kinase 2 (Homo sapiens) (Q9NRA0 whole entry, the tested form may be a part): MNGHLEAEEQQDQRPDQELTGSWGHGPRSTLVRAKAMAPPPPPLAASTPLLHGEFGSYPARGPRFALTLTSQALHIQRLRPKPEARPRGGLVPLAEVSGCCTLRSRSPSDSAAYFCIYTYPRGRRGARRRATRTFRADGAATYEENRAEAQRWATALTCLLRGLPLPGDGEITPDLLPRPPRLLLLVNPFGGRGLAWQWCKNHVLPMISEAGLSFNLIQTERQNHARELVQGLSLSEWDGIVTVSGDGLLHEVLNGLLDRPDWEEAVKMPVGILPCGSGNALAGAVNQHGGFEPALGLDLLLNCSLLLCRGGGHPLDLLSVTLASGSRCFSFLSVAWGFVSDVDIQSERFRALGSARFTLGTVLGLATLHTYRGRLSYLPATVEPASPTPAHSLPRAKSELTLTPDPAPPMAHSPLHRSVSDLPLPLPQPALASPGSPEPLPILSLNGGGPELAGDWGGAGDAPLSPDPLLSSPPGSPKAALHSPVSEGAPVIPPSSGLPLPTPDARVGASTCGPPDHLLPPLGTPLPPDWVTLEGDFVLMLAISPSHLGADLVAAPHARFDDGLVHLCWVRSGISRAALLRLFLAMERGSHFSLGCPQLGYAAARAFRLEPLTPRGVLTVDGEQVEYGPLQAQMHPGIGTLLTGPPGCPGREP
Sequence of ALK tyrosine kinase receptor (Homo sapiens) (Q9UM73 19-1620 limits assumed): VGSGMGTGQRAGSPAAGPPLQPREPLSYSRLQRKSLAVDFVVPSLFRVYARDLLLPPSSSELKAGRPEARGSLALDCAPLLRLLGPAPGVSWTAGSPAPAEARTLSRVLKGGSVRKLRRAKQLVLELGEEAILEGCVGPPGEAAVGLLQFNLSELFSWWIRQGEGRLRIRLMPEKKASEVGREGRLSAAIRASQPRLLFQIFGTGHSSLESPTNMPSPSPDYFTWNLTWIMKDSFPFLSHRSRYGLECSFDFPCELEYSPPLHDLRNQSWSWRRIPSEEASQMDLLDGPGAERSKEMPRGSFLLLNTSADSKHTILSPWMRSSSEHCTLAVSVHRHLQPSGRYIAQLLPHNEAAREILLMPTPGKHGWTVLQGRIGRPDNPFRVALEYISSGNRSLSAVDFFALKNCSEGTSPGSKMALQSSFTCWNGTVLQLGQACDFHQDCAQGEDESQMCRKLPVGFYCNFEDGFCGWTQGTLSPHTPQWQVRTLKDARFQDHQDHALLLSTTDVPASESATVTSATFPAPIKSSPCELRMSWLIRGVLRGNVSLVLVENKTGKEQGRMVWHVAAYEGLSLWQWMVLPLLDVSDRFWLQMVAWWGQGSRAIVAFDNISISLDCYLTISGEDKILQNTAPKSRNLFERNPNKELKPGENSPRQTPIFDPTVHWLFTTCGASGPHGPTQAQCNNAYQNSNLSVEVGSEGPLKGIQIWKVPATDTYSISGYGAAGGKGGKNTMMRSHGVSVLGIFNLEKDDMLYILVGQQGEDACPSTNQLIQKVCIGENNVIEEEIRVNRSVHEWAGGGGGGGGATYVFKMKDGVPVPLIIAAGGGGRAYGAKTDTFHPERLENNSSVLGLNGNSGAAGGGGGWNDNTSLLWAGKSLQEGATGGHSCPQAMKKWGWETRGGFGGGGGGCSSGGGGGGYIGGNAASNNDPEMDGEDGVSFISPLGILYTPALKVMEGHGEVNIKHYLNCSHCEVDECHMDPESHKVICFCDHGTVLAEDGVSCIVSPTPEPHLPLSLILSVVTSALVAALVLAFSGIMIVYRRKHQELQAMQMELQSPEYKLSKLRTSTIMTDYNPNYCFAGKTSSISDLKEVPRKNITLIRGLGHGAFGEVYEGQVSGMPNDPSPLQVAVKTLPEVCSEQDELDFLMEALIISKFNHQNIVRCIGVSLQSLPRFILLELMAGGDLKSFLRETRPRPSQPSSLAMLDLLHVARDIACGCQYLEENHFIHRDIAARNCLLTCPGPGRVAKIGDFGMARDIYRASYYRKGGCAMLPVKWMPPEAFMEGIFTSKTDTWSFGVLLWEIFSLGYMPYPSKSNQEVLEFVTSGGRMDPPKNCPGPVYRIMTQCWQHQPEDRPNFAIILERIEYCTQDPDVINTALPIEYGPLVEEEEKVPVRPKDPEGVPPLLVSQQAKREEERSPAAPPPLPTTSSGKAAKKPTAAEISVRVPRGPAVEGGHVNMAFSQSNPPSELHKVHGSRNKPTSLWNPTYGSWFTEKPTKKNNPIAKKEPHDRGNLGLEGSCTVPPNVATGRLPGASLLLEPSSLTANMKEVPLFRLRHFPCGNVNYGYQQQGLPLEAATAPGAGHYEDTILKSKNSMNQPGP
Sequence of 5'-AMP-activated protein kinase catalytic subunit alpha-1 (Homo sapiens) (Q13131 whole entry, looked up, the tested form may be a part): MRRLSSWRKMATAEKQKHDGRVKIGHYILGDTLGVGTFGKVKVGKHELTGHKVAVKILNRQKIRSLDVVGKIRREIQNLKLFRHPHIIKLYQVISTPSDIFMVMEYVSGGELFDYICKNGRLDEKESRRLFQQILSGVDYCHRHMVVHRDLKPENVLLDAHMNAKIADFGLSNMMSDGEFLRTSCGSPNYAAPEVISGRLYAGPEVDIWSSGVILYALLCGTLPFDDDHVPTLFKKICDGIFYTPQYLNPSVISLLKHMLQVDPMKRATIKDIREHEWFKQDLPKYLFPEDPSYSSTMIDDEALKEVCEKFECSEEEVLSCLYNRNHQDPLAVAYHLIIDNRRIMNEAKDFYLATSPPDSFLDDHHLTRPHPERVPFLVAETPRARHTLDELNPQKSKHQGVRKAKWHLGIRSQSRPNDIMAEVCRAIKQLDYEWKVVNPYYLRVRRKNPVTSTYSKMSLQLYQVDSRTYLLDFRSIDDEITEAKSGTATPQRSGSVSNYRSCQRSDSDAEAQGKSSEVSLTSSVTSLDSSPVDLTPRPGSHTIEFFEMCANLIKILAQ
Sequence of Serine/threonine-protein kinase 33 (Homo sapiens) (Q9BYT3 whole entry, looked up, the tested form may be a part): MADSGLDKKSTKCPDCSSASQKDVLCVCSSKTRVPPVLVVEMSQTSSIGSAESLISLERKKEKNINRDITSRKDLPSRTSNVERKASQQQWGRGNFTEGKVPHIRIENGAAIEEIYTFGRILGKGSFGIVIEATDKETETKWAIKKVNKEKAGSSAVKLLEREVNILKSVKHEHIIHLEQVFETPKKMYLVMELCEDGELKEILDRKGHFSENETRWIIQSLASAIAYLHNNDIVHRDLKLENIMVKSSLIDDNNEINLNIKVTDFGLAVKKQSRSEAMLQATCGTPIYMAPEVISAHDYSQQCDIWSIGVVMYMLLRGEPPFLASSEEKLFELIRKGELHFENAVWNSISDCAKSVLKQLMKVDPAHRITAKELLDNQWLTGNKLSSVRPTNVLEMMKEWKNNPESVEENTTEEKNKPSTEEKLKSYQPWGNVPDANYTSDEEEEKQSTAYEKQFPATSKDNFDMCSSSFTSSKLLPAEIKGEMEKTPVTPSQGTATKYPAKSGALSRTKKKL

For CC(C)(O)CNc1ncc(-c2ccnc(Nc3ccnc(Cl)c3)n2)c(CC2CC2)n1, the inhibition [1] was “inactive”, the Activity [2] was 111% and the inhibition [3] was “inactive”. The inhibition [4] was “inactive”, the Activity [5] was 117% and the inhibition [6] was “inactive”. The inhibition [7] was “inactive”, the Activity [8] was 124% and the pIC50 [9] was less than 5.00. The inhibition [10] was “inactive”, the inhibition [11] was “inactive” and the Activity [12] was 108%. The inhibition [13] was “inactive”, the inhibition [14] was “inactive” and the Activity [15] was 112%. For the same molecule, the inhibition [16] was “inactive”, the inhibition [17] was “inactive” and the inhibition [18] was “inactive”. For the same molecule, the Activity [19] was 115%, the Activity [20] was 82% and the inhibition [21] was “inactive”. For the same molecule, the inhibition [22] was “inactive”, the inhibition [23] was “inactive” and the inhibition [24] was “inactive”. For the same molecule, the inhibition [25] was “inactive”.

— ChEMBL document CHEMBL5705899 (Biochem J, 2014)
